Tests used:
[1] = Ring tensiometer
[2] = xn = mol fraction of the nth substance listed; settings: Ring tensiometer

CC(C)(C)O [2-methylpropan-2-ol]
[1]
Settings	surface tension liquid-gas [mN/m]
298.15 K	19.96
308.15 K	19.26
318.15 K	18.35
328.15 K	17.62

CC(C)(C)O [2-methylpropan-2-ol] + C[S+](C)[O-]
surface tension liquid-gas [mN/m], [2]
Settings	298.15 K	308.15 K	318.15 K	328.15 K
x1 = 0.0183	39.25	38.29	37.56	36.51
x1 = 0.0361	36.85	36.01	35.32	34.28
x1 = 0.0695	34.2	33.39	32.73	31.66
x1 = 0.1008	32.36	31.54	30.78	29.89
x1 = 0.1301	31.04	30.17	29.53	28.54
x1 = 0.1832	29.19	28.35	27.71	26.83
x1 = 0.2302	28.08	27.23	26.53	25.71
x1 = 0.3096	26.31	25.51	24.96	24.17
x1 = 0.4022	24.98	24.21	23.69	22.86
x1 = 0.4928	23.72	23.02	22.37	21.63
x1 = 0.5736	22.87	22.01	21.36	20.63
x1 = 0.6322	22.19	21.4	20.85	20.06
x1 = 0.6767	21.72	21.02	20.47	19.71
x1 = 0.7115	21.51	20.85	20.18	19.38
x1 = 0.8511	20.64	19.92	19.03	18.26
x1 = 1	19.96	19.26	18.35	17.62

CC(C)CCO [3-methylbutan-1-ol]
[1]
Settings	surface tension liquid-gas [mN/m]
298.15 K	22.83
308.15 K	22.02
318.15 K	21.3
328.15 K	20.49

CC(C)CCO [3-methylbutan-1-ol] + C[S+](C)[O-]
surface tension liquid-gas [mN/m], [2]
Settings	298.15 K	308.15 K	318.15 K	328.15 K
x1 = 0.0033	41.6	40.66	39.65	38.38
x1 = 0.0065	40.98	40.12	39.19	37.83
x1 = 0.0129	40.07	39.09	38.42	37.08
x1 = 0.0255	38.5	37.78	37.05	35.84
x1 = 0.0377	37.32	36.8	35.85	34.87
x1 = 0.0783	34.25	33.78	32.99	32.37
x1 = 0.1307	31.96	31.49	30.9	30.18
x1 = 0.1774	30.51	30	29.39	28.79
x1 = 0.2572	28.72	28.06	27.39	26.8
x1 = 0.323	27.65	27.06	26.37	25.6
x1 = 0.378	26.87	26.28	25.59	24.91
x1 = 0.4456	26	25.48	24.78	23.98
x1 = 0.4999	25.54	24.81	24.06	23.39
x1 = 0.5578	25	24.23	23.51	22.81
x1 = 0.6036	24.54	23.78	22.99	22.19
x1 = 0.6491	24.14	23.36	22.7	21.82
x1 = 0.6851	23.81	23.11	22.46	21.51
x1 = 0.786	23.42	22.69	22.01	21.16
x1 = 0.8875	23.16	22.41	21.64	20.89
x1 = 0.9511	22.95	22.2	21.46	20.68
x1 = 1	22.83	22.02	21.3	20.49

C[S+](C)[O-] [dimethyl sulfoxide]
[1]
Settings	surface tension liquid-gas [mN/m]
298.15 K	42.28
308.15 K	41.18
318.15 K	40.14
328.15 K	38.93

C[S+](C)[O-] [dimethyl sulfoxide] + CC(C)(C)O
[2], x2 = 0
Settings	surface tension liquid-gas [mN/m]
298.15 K	42.28
308.15 K	41.18
318.15 K	40.14
328.15 K	38.93

C[S+](C)[O-] [dimethyl sulfoxide] + CC(C)CCO
[2], x2 = 0
Settings	surface tension liquid-gas [mN/m]
298.15 K	42.28
308.15 K	41.18
318.15 K	40.14
328.15 K	38.93
